Laboratory results from article PMC5355960, “Specific inhibition of CK2α from an anchor outside the active site” (Chemical Science, 2016).
Like-named read-outs stand apart in the source and are kept apart here.

How the values were obtained:
[1] = system: HCT116 cells; experiment: cells; settings: Homo sapiens, HCT-116, 72 h
[2] = system: HCT116, Jurkat and A549 cells; settings: A549 vs IC50 (for pro-CAM4066: IC50 of CAM4066)
[3] = system: HCT116 cells; settings: 72 hours
[4] = system: AKT1 phosphoserine 129
[5] = system: A549 cells; settings: 72 hours
[6] = system: Jurkat cells; settings: 72 hours
[7] = system: A549 cells; experiment: cells; settings: Homo sapiens, A549, 72 h
[8] = system: Cdc37 phosphoserine 13
[9] = system: Jurkat cells; experiment: cells; settings: Homo sapiens, 72 h
[10] = system: TBK1; settings: read-out: IC50 TBK1; ref J.Med. Chem. (2011) 54:2:635; cited from earlier work
[11] = system: CLK1; settings: read-out: IC50 CLK1; ref PLOS ONE (2014) 9:4; cited from earlier work
[12] = system: 238 kinases; settings: cited from earlier work
[13] = system: PIM2; settings: read-out: IC50 PIM2; ref Biorg. Med. Chem. Lett. (2011) 21;22;6687; cited from earlier work
[14] = system: CK2α; settings: read-out: IC50 CK2α; ref J.Med. Chem. (2011) 54:2:635; cited from earlier work
[15] = system: CLK3; settings: read-out: IC50 CLK3; ref PLOS ONE (2014) 9:4; cited from earlier work
[16] = system: CDK2/Cyclin E; settings: read-out: IC50 CDK2/Cyclin E; ref Eur. J. Med. Chem. (2014) 78:217-224; cited from earlier work
[17] = system: PIM1; settings: read-out: IC50 PIM1; ref Biorg. Med. Chem. Lett. (2011) 21;22;6687; cited from earlier work
[18] = system: CLK3; settings: read-out: IC50 CLK3; ref J.Med. Chem. (2011) 54:2:635; cited from earlier work
[19] = system: CDK1/Cyclin B; settings: read-out: IC50 CDK1/Cyclin B; ref J.Med. Chem. (2011) 54:2:635; cited from earlier work
[20] = system: DAPK3; settings: read-out: IC50 DAPK3; ref J.Med. Chem. (2011) 54:2:635; cited from earlier work
[21] = system: FLT3; settings: read-out: IC50 FLT3; ref J.Med. Chem. (2011) 54:2:635; cited from earlier work
[22] = system: HIPK3; settings: read-out: IC50 HIPK3; ref J.Med. Chem. (2011) 54:2:635; cited from earlier work
[23] = system: PIM1; settings: read-out: IC50 PIM1; ref J.Med. Chem. (2011) 54:2:635; cited from earlier work
[24] = biological target: CK2α (Homo sapiens, UniProt P68400); settings: for ΔH / ΔS: ITC
[25] = system: 102 kinases; settings: cited from earlier work
[26] = HCT116, 2 × GI50, all time points (24, 48, 72 hours)

CK2α, sequence (P68400 2-329): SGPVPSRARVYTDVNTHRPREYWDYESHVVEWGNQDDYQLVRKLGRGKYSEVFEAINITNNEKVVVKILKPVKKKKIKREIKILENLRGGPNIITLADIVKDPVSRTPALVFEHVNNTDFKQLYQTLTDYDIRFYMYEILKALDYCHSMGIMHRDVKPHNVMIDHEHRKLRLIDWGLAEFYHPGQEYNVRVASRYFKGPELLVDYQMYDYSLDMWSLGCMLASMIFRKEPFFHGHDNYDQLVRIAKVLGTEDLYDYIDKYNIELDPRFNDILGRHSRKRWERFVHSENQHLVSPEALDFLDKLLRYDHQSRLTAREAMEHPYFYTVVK

## COC(=O)c1cccc(NC(=O)CCNC(=O)CCNCc2ccc(-c3ccccc3)c(Cl)c2)c1 [pro-CAM4066]
[1]
  GI50: 9000 nM
[2]
  drop-off in the GI50 compared to the IC50: 19-60 fold
[3]
  GI50: 8800 nM
[4]; HCT116, 2 × GI50, 24 hours
  inhibition of the phosphorylation of AKT1 Ser129: approximately 50%
[5]; listed as 8
  GI50: 20200 nM
[6]; listed as 8
  GI50: 6300 nM
[7]
  GI50: 20000 nM
[8]; HCT116, 2 × GI50, 48 and 72 hours
  inhibition of the phosphorylation of CDC37 Ser13: the inhibition did increase
[8]; HCT116, 2 × GI50, 24 hours
  inhibition of the phosphorylation of CDC37 Ser13: no inhibition
[9]
  GI50: 6000 nM

## O=C(O)c1ccc2c(c1)nc(Nc1cccc(Cl)c1)c1ccncc12 [CX4945]
[1]
  GI50: 4800 nM
[10]
  IC50: 35 nM
[11]
  IC50: 82 nM
[12]; 0.5 μM, screen size 238 kinases
  number of other kinases inhibited by 70% or greater: 26
[12]
  number of other kinases inhibited with nanomolar IC50 values: at least twelve
[12]; larger literature panel
  Gini coefficient: […]
[13]
  IC50: 186 nM
[14]
  IC50: […]
[15]
  IC50: 90 nM
[3]
  GI50: 5000 nM
[16]
  IC50: 1800 nM
[17]
  IC50: 48 nM
[4]; [26]
  inhibition of the phosphorylation of AKT1 Ser129: very clear inhibition
[5]
  GI50: 16600 nM
[18]
  IC50: 41 nM
[19]
  IC50: 56 nM
[6]
  GI50: 4700 nM
[7]
  GI50: 17000 nM
[20]
  IC50: 17 nM
[21]
  IC50: 55 nM
[22]
  IC50: 45 nM
[8]; HCT116, 2 × GI50, 24 hours
  inhibition of the phosphorylation of CDC37 Ser13: reduced inhibition
[8]; [26]
  inhibition of the phosphorylation of CDC37 Ser13: very clear inhibition
[9]
  GI50: 5000 nM
[23]
  IC50: 46 nM

## Cc1ccc(O)c(C(=O)O)c1 [compound 5]
[24]
  ΔH: -7.722 kcal/mol
  ΔS: -6.51 cal/mol/deg

## Nc1cccc(C(=O)O)c1 [compound 6]
[24]
  detectable binding by ITC: no inhibition of phosphorylation at 500 μM or detectable binding by ITC

## O=C(O)c1ccc2c(c1)nc(Nc1cccc(C(F)(F)F)c1)c1nc(NC3CC3)ncc12 [CX5279]
[25]; 0.5 μM, 102 kinases
  number of other kinases inhibited by 70% or greater: 4
[25]; larger literature panel
  Gini coefficient: 0.755

## CCCOc1ccc(CN)cc1Cl.Cl [compound 3]
[24]
  ΔH: -5.047 kcal/mol
  ΔS: -2.28 cal/mol/deg
